Results reported in patent US11827724B2, “Polytetrafluoroethylene and method for producing same” (DAIKIN INDUSTRIES, LTD., priority 2009, dated 2023).
Like-named read-outs stand apart in the source and are kept apart here.

Tests used:
[1] = Log POW, distribution coefficient between 1-octanol and water; conditions: fluorinated surfactants used in Examples; octanol/water (1:1)
Source text: The Log POW is distribution coefficient between 1-octanol and water. The Log POW is represented by Log P, wherein P is the ratio of a concentration of a fluorinated surfactant in an octanol phase to a concentration of a fluorinated surfactant in a water phase when an octanol/water (1:1) mixture containing a fluorinated surfactant is phase-separated.

[2] = PFOA, stated in description as comparison; cited from earlier work

| SMILES | Log POW [1] | Log POW [2] |
| --- | --- | --- |
| N.O=C(O)C(F)(OC(F)(F)C(F)(OC(F)(F)F)C(F)(F)F)C(F)(F)F (centres unmarked) [CF3—O—CF(CF3)CF2O—CF(CF3) COONH4] | 3.4 |  |
| N.O=C(O)C(F)(F)C(F)(F)C(F)(F)C(F)(F)C(F)(F)C(F)(F)C(F)(F)F [PFOA, perfluoro octanoic acid ammonium] |  | 3.5 |
